What all share (assay): NCI anticancer screen, dose series, 48 h
Assay [1] concerns 786-0.
Assay [2] concerns A549.
Assay [3] concerns CCRF-CEM.
In assay [4] the test system is HCT-116.
In assay [5] the test system is HL-60.
The subject of assay [6] is IGROV-1.
The subject of assay [7] is OVCAR-3.
The subject of assay [8] is OVCAR-8.
Assay [9] concerns SF-295.
Assay [10] relates to SF-539.
Assay [11] relates to SK-MEL-5.
Assay [12] relates to SN12C.
In assay [13] the test system is UACC-257.
In assay [14] the test system is UACC-62.
The subject of assay [15] is CAKI-1.
The test system of assay [16] is HOP-92.

Structures are written as SMILES.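 Values below derive from 48-hour exposures of cells grown in 96-well plates, with endpoints linearly interpolated between the two concentrations bracketing the appropriate inhibition level. Abbreviation: GI50, concentration required for 50% inhibition of growth.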 Active and inactive are the calls of the source. Rule as the data show it: active = GI50 up to about 1.1 µM and inactive = higher. Where only a bound is given, the exact number is not on record here.

On to `Cc1cn(C2CC3C(COCN3O)O2)c(=O)[nH]c1=O` (centres undefined), for which the GI50 in assay [1], in assay [2], in assay [3], in assay [4], in [5] and in [6] was > 100 µM (inactive) in each case. The GI50 in assay [7], in assay [8], in assay [9], in [10], in assay [11] and in assay [12] was > 100 µM (inactive) throughout. The GI50 in assay [13] and in assay [14] was > 100 µM (inactive) throughout.
Turning to `COc1cc2c(cc1OC)[C@@H](Nc1ccc(F)cc1)C1COC(=O)[C@@H]1C2c1cc(OC)c(O)c(OC)c1` (some centres undefined), the GI50 in assay [1] is 0.573 µM (active); in [2] it was 0.0484 µM (active); in [15], 0.384 µM (active); in assay [3] it was 0.14 µM (active); in assay [4], 3.56 µM (inactive); in assay [5], 0.0982 µM (active). For the same molecule, the GI50 is 21.7 µM (inactive) in [6]; 23.4 µM (inactive) in [7]; 1.99 µM (inactive) in [8]; 0.267 µM (active) in assay [9]; 0.594 µM (active) in [10]; 1.93 µM (inactive) in assay [11]. Further, the GI50 in assay [12] was 1.56 µM (inactive); in assay [13], 5.53 µM (inactive); in assay [14] it was 0.589 µM (active).
In the case of `COc1ccc(-c2cc3ccccc3[nH]c2=O)cc1OC`, the GI50 in [1], in assay [2], in assay [15], in assay [3], in assay [4] and in [5] was > 100 µM (inactive) throughout. For the same molecule, the GI50 in assay [6], in [8], in assay [9], in [10], in assay [12] and in [13] was > 100 µM (inactive) throughout. The GI50 in [14] was > 100 µM (inactive).
For the molecule `COc1ccc([C@H]2[C@@H]3CCc4ccccc4C3=NN2C(N)=S)cc1OC`, the GI50 was 54.2 µM (inactive) in assay [1]; 41.9 µM (inactive) in assay [2]; 32.4 µM (inactive) in [3]; 47.9 µM (inactive) in [4]; 22.9 µM (inactive) in [5]; 35.4 µM (inactive) in [16]. Further, the GI50 is 69.3 µM (inactive) in [6]; 51.4 µM (inactive) in [7]; 74.3 µM (inactive) in assay [8]; > 100 µM (inactive) in assay [10]; > 100 µM (inactive) in [12]; 45.5 µM (inactive) in [13]. The GI50 in assay [14] is 34 µM (inactive).
Turning to `COC(=O)CCC1CCc2c(OC)ccc(O)c2C1=O` (centres undefined), the GI50 in assay [1], in assay [2], in assay [3], in assay [4], in [5] and in assay [6] was > 100 µM (inactive) each time. Also, the GI50 in assay [7], in assay [8], in assay [9], in assay [10], in assay [11] and in [12] was > 100 µM (inactive) each time. The GI50 in [13] and in [14] was > 100 µM (inactive) each time.

For the origin of these results see ChEMBL document CHEMBL1201862, “PubChem BioAssay data set” (2004).
